{"source": "patent US20230101768A1", "about": "“METHOD TO TREAT MANGANESE TOXICITY AND MANGANESE-INDUCED PA[…] HUMANS” (priority 2021, published 2023)", "key": {"HIF2α": {"test_system": "HIF2α", "type": "cell-based, human", "description": "(§1) qRT-PCR analyses in HepG2 cells stably infected with scramble shRNAs or shRNAs targeting HIF1α, HIF2α, HIF1β/ARNT or HIF1α+HIF2α. Expression in respective scramble shRNA control cells was normalized to 1. Scramble shRNA sequence 1 was used for the HIF1α shRNA assay (single knockdown). Scramble shRNA sequence 2 was used for the other experiments, including HIF1α+HIF2α double knockdown. N=3-4. Except HIF1β/ARNT shRNAs, p<0.05 by t-test in comparison with respective scramble shRNA. […] N.S.—not significant.\n(§2) ShRNA sequences targeting HIF1α, HIF2α, or HIF1β/ARNT (Table 3) were obtained from the MISSION® TRC shRNA library (Sigma) or were previously described (103). Scramble shRNA sequence 1 was from the MISSION® TRC shRNA library while scramble shRNA sequence 2 (Table 3) has been previously reported (104). These sequences were sub-cloned into the lentivirus transfer plasmid pLKO.1 vector (Addgene #8453).\n(§3) Lentiviral infections. Stable cells were generated by lentivirus infection essentially as described by us previously (49, 98). Briefly, lentivirus was produced in HEK293T cells by co-transfecting transfer plasmids described above with plasmids coding for a third generation packing system that is routinely used (pRSV-Rev, pRRE, and pCMV-VSVG) (49, 98). Viral supernatants were collected 40-48 h post-transfection. […]\n(§4) Quantitative RT-PCR assays."}, "HIF1α": {"test_system": "HIF1α", "type": "cell-based, human", "description": "as §1, §2, §3, §4"}, "SLC30A10 [1]": {"test_system": "SLC30A10", "type": "in vivo, mice", "settings": "oral manganese ~15 mg/kg daily from birth until 8 weeks", "method": "(§5) A well-characterized drinking water-based manganese exposure regimen was used to model human environmental manganese exposure by providing mice with ˜50 mg manganeseCl2.4H2O/kg body weight daily (˜15 mg absolute manganese/kg per day) from birth until 8 weeks of age. This, and related similar, dosing regimens: 1) approximate the increase in manganese exposure in humans consuming well water contaminated with 1.5 mg manganese/L, which is the median well water concentration associated with neurological deficits in children; 2) increase brain manganese levels by ˜2-3 fold, similar to human patients; 3) produce measurable neurobehavioral deficits without overt toxicity; and 4) model exposure to manganese in developmentally-sensitive early-life and adolescent periods (11). Pre-weaning manganese was delivered by pipette directly into the mouth, and post-weaning manganese was delivered in drinking water using procedures described in detail in ref. (11). In brief, pre-weaning dosing was adjusted to each animal's body weight. For this, a stock solution of 69.2 mg absolute manganese/ml prepared in milliQ water was diluted in milliQ water containing 2.5% (wt/vol) of the natural sweetener Stevia (to facilitate intake by pups), and the required manganese amount (0.2 μl manganese stock/g body weight) was delivered in a dose of ˜5-10 μl/animal. For post-weaning exposure, a 27.7 mg absolute manganese/ml stock solution was prepared in water and diluted to 0.069 mg absolute manganese/ml in drinking water, which provided mice with ˜15 mg absolute manganese/kg per day based on a daily water intake of ˜2-5 ml/mouse depending on age.\nTo assay for the protective effect of roxadustat, animals were exposed to roxadustat or vehicle with or without manganese in drinking water from ˜4 weeks of age. Treatment lasted for 4 weeks from initiation. Roxadustat (Selleckchem) was prepared as a 50 mg/ml stock solution in DMSO, then diluted to 1 mg/ml in sterile phosphate buffered saline (PBS), and delivered by daily i.p. injection at 10 mg/kg. Vehicle was 2% DMSO in PBS. For this experiment, drinking water manganese levels were adjusted to 0.138 mg absolute manganese/ml so that animals received ˜30 mg absolute manganese/kg daily. A higher level of manganese was used because exposure was initiated after weaning, which was necessary because daily i.p. injections for roxadustat delivery were not possible in the pre-weaning period.\n(§6) Animals were euthanized using carbon dioxide and tissue dissected for qRT-PCR or ICPMS analyses as described by us previously (50).\n(§7) Quantitative RT-PCR assays. RNA extraction from HepG2 cells and mouse tissue, reverse transcription to cDNA, and qRT-PCR analyses were performed as described by us previously (47, 50). For analyses of mouse brain samples, a part of the midbrain, including the basal ganglia, was used. Transcript levels were quantified using the ΔΔCT method with 18S (in mice) or TBP (in HepG2 cells) as the internal control, also as described by us previously (47, 50)."}, "[2]": {"test_system": "prolyl hydroxylase domain 2 (PHD2)", "settings": "HepG2 cells, 250 μM manganese", "method": "as §7"}, "SLC39A14": {"test_system": "SLC39A14", "settings": "oral manganese ~15 mg/kg daily from birth until 8 weeks", "method": "as §5, §6, §7"}, "SLC39A8": {"test_system": "SLC39A8", "settings": "oral manganese ~15 mg/kg daily from birth until 8 weeks", "method": "as §5, §6, §7"}, "SLC30A10 [3]": {"test_system": "SLC30A10", "type": "cell-based, human", "settings": "HepG2 cells", "method": "Cells were treated with 0 or 250 μM manganese for 4 h, and gene expression was analyzed by qRT-PCR. For each transcript, expression without manganese treatment was normalized to 1. N=4. Data are mean±SE.\nCell culture. HepG2 cells were grown in Eagle's modified essential medium (MEM; Corning) with 10% fetal bovine serum (Atlanta Biologicals), 100 IU/ml penicillin (Corning), and 100 μg/ml streptomycin (Corning). 293T cells were maintained in Dulbecco's modified essential medium/F12 (Thermo) supplemented with 10% fetal bovine serum, penicillin (100 IU/ml), and streptomycin (100 μg/ml). Human primary hepatocytes were purchased from XenoTech (catalog #HPCH10+) and cultured according to protocols provided by the supplier.\nmanganese and drug treatments in cell culture. Cells were treated with indicated levels of manganese as manganeseCl2.4H2O (Fisher). Vehicle for manganese treatment was water. Prolyl hydroxylase inhibitors roxadustat (Caymen), vadadustat, and molidustat (both APE-Bio); the HIFα inhibitor LW6 (Selleckchem); the proteasomal inhibitor MG132 (Sigma); and the transcription inhibitor actinomycin D (Sigma) were dissolved in DMSO. […] Vehicle treatment for all drugs was DMSO.\nas §7"}}, "note": "Where two headings read alike, the source gives them in different places.", "data": [{"smiles": "O.O.O.O.[Cl][Mn][Cl]", "note": "[manganese, manganeseCl2.4H2O]", "values": [{"measurement": "HIF2α mRNA levels after manganese", "setting": "HIF2α", "result": "not elevated"}, {"measurement": "HIF1α mRNA levels after manganese", "setting": "HIF1α", "result": "not elevated"}, {"measurement": "SLC30A10 levels in intestines", "setting": "SLC30A10 [1]; 129S4/SvJaeJ mice", "result": "not"}, {"measurement": "SLC30A10 levels in liver", "setting": "SLC30A10 [1]; 129S4/SvJaeJ mice", "result": "increased"}, {"measurement": "SLC30A10 levels in intestines", "setting": "SLC30A10 [1]; C57BL/6J mice", "result": "increase"}, {"measurement": "SLC30A10 levels in liver", "setting": "SLC30A10 [1]; C57BL/6J mice", "result": "not"}, {"measurement": "Expression of SLC30A10 in the brain", "setting": "SLC30A10 [1]; either strain (129S4/SvJaeJ, C57BL/6J)", "result": "did not impact"}, {"measurement": "PHD2 levels in manganese-treated cells", "setting": "[2]", "result": "elevated"}, {"measurement": "Hepatic and brain SLC39A14 levels", "setting": "SLC39A14; 129S4/SvJaeJ mice", "result": "elevated"}, {"measurement": "Intestinal SLC39A14 levels", "setting": "SLC39A14; C57BL/6J mice", "result": "enhanced"}, {"measurement": "Hepatic and brain SLC39A8 levels", "setting": "SLC39A8; 129S4/SvJaeJ mice", "result": "elevated"}, {"measurement": "Intestinal SLC39A8 levels", "setting": "SLC39A8; either strain", "result": "did not change"}, {"measurement": "Relative expression after manganese, SLC30A10 transcript", "setting": "SLC30A10 [3]; 250 μM manganese for 4 h, expression without manganese normalized to 1, mean±SE, N=4", "result": "2.40 ± 0.28"}, {"measurement": "Time at which SLC30A10 levels returned to baseline", "setting": "SLC30A10 [3]; 250 μM manganese, time course", "result": "≤ 24", "unit": "h"}, {"measurement": "Time to statistically significant increase of SLC30A10", "setting": "SLC30A10 [3]; 250 μM manganese, time course", "result": "≤ 2", "unit": "h"}, {"measurement": "Lowest manganese level at which SLC30A10 levels were elevated", "setting": "SLC30A10 [3]; dose response, 4 h", "result": 62.5, "unit": "µM"}]}]}
